Patent US20100179058A1, “Azolylmethyloxiranes, Their Use for Controlling Phytopathogenic Fungi, and Compositions Comprising Them” (BASF SE, priority 2006, published 2010)

What was measured:
Alternaria solani [1] = experiment: Activity against early blight of tomato caused by Alternaria solani (Alteso P1), greenhouse; assay type: in vivo; conditions: tomato plants, comparative experiment, untreated 90
Method: The active compounds were prepared separately or jointly as a stock solution comprising 25 mg of active compound which was made up to 10 ml using a mixture of acetone and/or DMSO and the emulsifier Wettol EM 31 (wetting agent having emulsifying and dispersing action based on ethoxylated alkylphenol) in a volume ratio of solvent/emulsifier of 99:1. The mixture was then made up to 100 ml with water. This stock solution was diluted with the solvent/emulsifier/water mixture described to give the concentration of active compound stated below. Leaves of potted tomato plants were sprayed to runoff point with an aqueous suspension having the active compound concentration stated below. The next day, the leaves were inoculated with an aqueous spore suspension of Alternaria solani in a 2% strength biomalt solution. The plants were then placed in a water vapor-saturated chamber at temperatures between 20 and 22° C. After 5 days, the disease on the untreated but infected control plants had developed to such an extent that the infection could be determined visually in %. […]

Botrytis cinerea = experiment: Activity against gray mold on bell pepper leaves caused by Botrytis cinerea, 1 day protective application (Botrci P1), greenhouse; assay type: in vivo; conditions: bell pepper seedlings, comparative experiment, untreated 100
Method: The active compounds were prepared separately or jointly as a stock solution comprising 25 mg of active compound which was made up to 10 ml using a mixture of acetone and/or DMSO and the emulsifier Wettol EM 31 (wetting agent having emulsifying and dispersing action based on ethoxylated alkylphenol) in a volume ratio of solvent/emulsifier of 99:1. The mixture was then made up to 100 ml with water. This stock solution was diluted with the solvent/emulsifier/water mixture described to give the concentration of active compound stated below. Bell pepper seedlings were, after 2-3 leaves were well developed, sprayed to runoff point with an aqueous suspension having the active compound concentration stated below. The next day, the treated plants were inoculated with a spore suspension of Botrytis cinerea in a 2% strength biomalt solution. The test plants were then placed in a dark climatized chamber at 22 to 24° C., and high atmospheric humidity. After 5 days, the extent of the fungal infection on the leaves could be determined visually in %.

Septoria tritici = experiment: Activity against the Septoria leaf blotch pathogen Septoria tritici in the microtiter test (Septtr); assay type: cell-based; conditions: 125 ppm active compound, microtiter plate, 405 nm, day 7 after inoculation
Method: (§1) The active compounds were formulated separately as a stock solution having a concentration of 1 ppm in DMSO. The stock solution is pipetted onto a microtiter plate (MTP) and diluted to the stated active compound concentration using a malt-based aqueous nutrient medium for fungi. An aqueous spore suspension of Septoria tritici was then added. The plates were placed in a water vapor-saturated chamber at temperatures of 18° C. Using an absorbtion photometer, the MTPs were measured at 405 nm on day 7 after the inoculation. The measured parameters were compared to the growth of the active compound-free control variant and the fungus- and active compound-free blank value to determine the relative growth in % of the pathogens in the individual active compounds.

Alternaria solani [2] = experiment: Activity against Alternaria solani early blight pathogen in the microtiter test (Alteso); assay type: cell-based; conditions: 125 ppm active compound, microtiter plate, 405 nm, day 7 after inoculation
Method: as §1, with “Alternaria solani” for “Septoria tritici”

Row | SMILES | Infection in % at 63 ppm for Alteso P1 (Alternaria solani [1]) | Infection in % at 63 ppm for Botrci P1 (Botrytis cinerea) | growth (relative growth in % of the pathogens) (Septoria tritici) | growth (relative growth in % of the pathogens) (Alternaria solani [2])
1 | Fc1ccc(C2(Cn3cncn3)OC2c2ccccc2Cl)c(F)c1 (racemic) [8.12] | 10% | 30% |  | 
2 | Cc1cccc(C2OC2(Cn2cncn2)c2ccc(F)cc2F)c1 (stereo not drawn) [8.8] |  |  | 0% | 0%
3 | Fc1ccccc1C1(Cn2cncn2)OC1c1ccccc1Cl (stereo not drawn) [Comp. No. 6 of EP-A 0196038, reference compound] | 90% | 100% |  | 
